The numbers were not newly measured in patent US20110086074A1, “COMBINATIONS OF NIACIN AND AN OXICAM” (DR. REDDY'S LABORATORIES LTD., priority 2008, published 2011), which cites them from elsewhere.

The conditions of data set [1]: n-octanol/pH 7.4 buffer.

Consider `Cc1cnc(NC(=O)C2=C(O)c3ccccc3S(=O)(=O)N2C)s1` [Meloxicam, 4-hydroxy-2-methyl-N-(5-methyl-2-thiazolyl)-2H-1,2-benzothiazine-3-carboxamide-1,1-dioxide], for which the Solubility in water result is on record as “practically insoluble in water”. In addition, where the note is “methanol”, the Solubility in methanol entry is given as “very slightly soluble in methanol”. Besides, the “Solubility in strong acids and bases” value (strong acids and bases, compared with water) is “higher solubility observed in strong acids and bases”. Besides, in data set [1], the Apparent partition coefficient is recorded as 0.1.
As to `O=C(O)c1cccnc1` [Niacin, 3-pyridinecarboxylic acid], the Solubility in water entry is on record as “very soluble in water”.
